# Measurements taken from PubChem BioAssay (NCI).
#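 1) Cells in 96-well plates. 2) Compound, 48 h, 5 concentrations. 3) Linear interpolation between surrounding doses. 4) Unreached endpoint = highest concentration. GI50 = concentration required for 50% inhibition of growth. TGI denotes the concentration required for complete inhibition of growth.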
# Assays:
# Assay in all cases: NCI tumour cell line growth inhibition, 48 h
# SF-295 CNS = test system: SF-295 CNS
# A549 NSCLC = test system: A549 NSCLC
# MALME-3M melanoma = test system: MALME-3M melanoma
# NCI-H522 lung = test system: NCI-H522 lung
# HOP-92 NSCLC = test system: HOP-92 NSCLC
# HT29 colon = test system: HT29 colon
# DU-145 prostate = test system: DU-145 prostate
# NCI-H226 lung = test system: NCI-H226 lung
# PC-3 prostate = test system: PC-3 prostate
# NCI-H23 lung = test system: NCI-H23 lung
# LOX IMVI melanoma = test system: LOX IMVI melanoma
# HOP-62 NSCLC = test system: HOP-62 NSCLC
# SK-MEL-28 melanoma = test system: SK-MEL-28 melanoma
# SK-MEL-2 melanoma = test system: SK-MEL-2 melanoma
# MOLT-4 leukemia = test system: MOLT-4 leukemia
# ACHN renal = test system: ACHN renal
# CAKI-1 renal = test system: CAKI-1 renal
# HCT-15 colon = test system: HCT-15 colon
# IGROV1 ovarian = test system: IGROV1 ovarian
# T-47D breast = test system: T-47D breast
# SN12C renal = test system: SN12C renal
# COLO 205 colon = test system: COLO 205 colon
# A498 renal = test system: A498 renal
# TK-10 renal = test system: TK-10 renal
# OVCAR-3 ovarian = test system: OVCAR-3 ovarian
# MDA-MB-435 = test system: MDA-MB-435
# SF-539 CNS = test system: SF-539 CNS
# NCI/ADR-RES ovarian = test system: NCI/ADR-RES ovarian
# SK-MEL-5 melanoma = test system: SK-MEL-5 melanoma
# SNB-19 CNS = test system: SNB-19 CNS
# SK-OV-3 ovarian = test system: SK-OV-3 ovarian
# 786-0 renal = test system: 786-0 renal
# SNB-75 CNS = test system: SNB-75 CNS
# K-562 leukemia = test system: K-562 leukemia
# M14 melanoma = test system: M14 melanoma
# CCRF-CEM leukemia = test system: CCRF-CEM leukemia
# OVCAR-8 ovarian = test system: OVCAR-8 ovarian
# U251 CNS = test system: U251 CNS
# MDA-MB-231 breast = test system: MDA-MB-231 breast
# RPMI-8226 leukemia = test system: RPMI-8226 leukemia
# HL-60(TB) leukemia = test system: HL-60(TB) leukemia
# RXF 393 renal = test system: RXF 393 renal
# SW-620 colon = test system: SW-620 colon
# UACC-62 melanoma = test system: UACC-62 melanoma
# HS 578T breast = test system: HS 578T breast
# BT-549 breast = test system: BT-549 breast
# UACC-257 melanoma = test system: UACC-257 melanoma
# OVCAR-4 ovarian = test system: OVCAR-4 ovarian
# OVCAR-5 ovarian = test system: OVCAR-5 ovarian
# MCF7 breast = test system: MCF7 breast
# KM12 colon = test system: KM12 colon
# SF-268 CNS = test system: SF-268 CNS
# HCT-116 colon = test system: HCT-116 colon
# HCC-2998 colon = test system: HCC-2998 colon
# UO-31 renal = test system: UO-31 renal
# SR leukemia = test system: SR leukemia
# NCI-H460 lung = test system: NCI-H460 lung
# MDA-N = test system: MDA-N
# EKVX NSCLC = test system: EKVX NSCLC
compound,measurement,setting,value
O=C1NC(=NCc2cccs2)O/C1=C\c1ccc2ncccc2c1,GI50,SF-295 CNS,5.03 µM
same,TGI,SF-295 CNS,15.9 µM
same,GI50,A549 NSCLC,4.46 µM
same,TGI,A549 NSCLC,12.5 µM
same,GI50,MALME-3M melanoma,4.85 µM
same,TGI,MALME-3M melanoma,15.3 µM
same,GI50,NCI-H522 lung,2 µM
same,TGI,NCI-H522 lung,8.34 µM
same,GI50,HOP-92 NSCLC,1.51 µM
same,TGI,HOP-92 NSCLC,9.66 µM
same,GI50,HT29 colon,6.12 µM
same,TGI,HT29 colon,21.2 µM
same,GI50,DU-145 prostate,5.82 µM
same,TGI,DU-145 prostate,> 25 µM
same,GI50,NCI-H226 lung,5.82 µM
same,TGI,NCI-H226 lung,> 19.8 µM
same,GI50,PC-3 prostate,6.33 µM
same,TGI,PC-3 prostate,> 25 µM
same,GI50,NCI-H23 lung,7.9 µM
same,TGI,NCI-H23 lung,> 25 µM
same,GI50,LOX IMVI melanoma,5.87 µM
same,TGI,LOX IMVI melanoma,19.4 µM
same,GI50,HOP-62 NSCLC,6.1 µM
same,TGI,HOP-62 NSCLC,18.9 µM
same,GI50,SK-MEL-28 melanoma,5.87 µM
same,TGI,SK-MEL-28 melanoma,18 µM
same,GI50,SK-MEL-2 melanoma,4.2 µM
same,TGI,SK-MEL-2 melanoma,9.82 µM
same,GI50,MOLT-4 leukemia,4.88 µM
same,TGI,MOLT-4 leukemia,12.4 µM
same,GI50,ACHN renal,4.07 µM
same,TGI,ACHN renal,21.5 µM
same,GI50,CAKI-1 renal,3.86 µM
same,TGI,CAKI-1 renal,12.3 µM
same,GI50,HCT-15 colon,6.38 µM
same,TGI,HCT-15 colon,> 25 µM
same,GI50,IGROV1 ovarian,3.51 µM
same,TGI,IGROV1 ovarian,10.5 µM
same,GI50,T-47D breast,2.98 µM
same,TGI,T-47D breast,12.6 µM
same,GI50,SN12C renal,5.86 µM
same,TGI,SN12C renal,> 25 µM
same,GI50,COLO 205 colon,5.2 µM
same,TGI,COLO 205 colon,12.8 µM
same,GI50,A498 renal,0.606 µM
same,TGI,A498 renal,4.81 µM
same,GI50,TK-10 renal,2.89 µM
same,TGI,TK-10 renal,9.61 µM
same,GI50,OVCAR-3 ovarian,4.46 µM
same,TGI,OVCAR-3 ovarian,12.6 µM
same,GI50,MDA-MB-435,4.51 µM
same,TGI,MDA-MB-435,14.4 µM
same,GI50,SF-539 CNS,2.87 µM
same,TGI,SF-539 CNS,8.59 µM
same,GI50,NCI/ADR-RES ovarian,7.8 µM
same,TGI,NCI/ADR-RES ovarian,> 25 µM
same,GI50,SK-MEL-5 melanoma,4.63 µM
same,TGI,SK-MEL-5 melanoma,9.83 µM
same,GI50,SNB-19 CNS,7.04 µM
same,TGI,SNB-19 CNS,> 25 µM
same,GI50,SK-OV-3 ovarian,4.1 µM
same,TGI,SK-OV-3 ovarian,12.2 µM
same,GI50,786-0 renal,6.21 µM
same,TGI,786-0 renal,> 20.3 µM
same,GI50,SNB-75 CNS,1.72 µM
same,TGI,SNB-75 CNS,8.08 µM
same,GI50,K-562 leukemia,7.31 µM
same,TGI,K-562 leukemia,> 25 µM
same,GI50,M14 melanoma,5 µM
same,TGI,M14 melanoma,17 µM
same,GI50,CCRF-CEM leukemia,4.8 µM
same,TGI,CCRF-CEM leukemia,16.7 µM
same,GI50,OVCAR-8 ovarian,4.27 µM
same,TGI,OVCAR-8 ovarian,16.6 µM
same,GI50,U251 CNS,5.07 µM
same,TGI,U251 CNS,> 18.8 µM
same,GI50,MDA-MB-231 breast,8.23 µM
same,TGI,MDA-MB-231 breast,> 25 µM
same,GI50,RPMI-8226 leukemia,4.26 µM
same,TGI,RPMI-8226 leukemia,17.3 µM
same,GI50,HL-60(TB) leukemia,4.64 µM
same,TGI,HL-60(TB) leukemia,15.3 µM
same,GI50,RXF 393 renal,4.63 µM
same,TGI,RXF 393 renal,13.9 µM
same,GI50,SW-620 colon,4.74 µM
same,TGI,SW-620 colon,15.7 µM
same,GI50,UACC-62 melanoma,4.42 µM
same,TGI,UACC-62 melanoma,11.5 µM
same,GI50,HS 578T breast,4.72 µM
same,TGI,HS 578T breast,14.8 µM
same,GI50,BT-549 breast,3.15 µM
same,TGI,BT-549 breast,13.3 µM
same,GI50,UACC-257 melanoma,3.74 µM
same,TGI,UACC-257 melanoma,12.4 µM
same,GI50,OVCAR-4 ovarian,4.5 µM
same,TGI,OVCAR-4 ovarian,> 20.3 µM
same,GI50,OVCAR-5 ovarian,6.58 µM
same,TGI,OVCAR-5 ovarian,23.9 µM
same,GI50,MCF7 breast,5.02 µM
same,TGI,MCF7 breast,23.7 µM
same,GI50,KM12 colon,7.45 µM
same,TGI,KM12 colon,24.5 µM
same,GI50,SF-268 CNS,5.34 µM
same,TGI,SF-268 CNS,18.1 µM
same,GI50,HCT-116 colon,4.92 µM
same,TGI,HCT-116 colon,> 25 µM
same,GI50,HCC-2998 colon,7.76 µM
same,TGI,HCC-2998 colon,> 25 µM
same,GI50,UO-31 renal,4.99 µM
same,TGI,UO-31 renal,14.1 µM
same,GI50,SR leukemia,2.58 µM
same,TGI,SR leukemia,10.7 µM
same,GI50,NCI-H460 lung,6.62 µM
same,TGI,NCI-H460 lung,> 25 µM
COc1ccc(OC)c(/C=C2/C(=O)N=C(NC(C)=O)N2C)c1,TGI,SF-295 CNS,> 100 µM
same,TGI,A549 NSCLC,> 100 µM
same,TGI,NCI-H522 lung,> 100 µM
same,TGI,HOP-92 NSCLC,> 100 µM
same,TGI,HT29 colon,> 100 µM
same,TGI,DU-145 prostate,> 100 µM
same,TGI,NCI-H226 lung,> 100 µM
same,TGI,PC-3 prostate,> 100 µM
same,TGI,NCI-H23 lung,> 100 µM
same,TGI,LOX IMVI melanoma,> 100 µM
same,TGI,HOP-62 NSCLC,> 100 µM
same,TGI,SK-MEL-28 melanoma,> 100 µM
same,TGI,SK-MEL-2 melanoma,> 100 µM
same,TGI,MOLT-4 leukemia,> 100 µM
same,TGI,ACHN renal,> 100 µM
same,TGI,CAKI-1 renal,> 100 µM
same,TGI,HCT-15 colon,> 100 µM
same,TGI,IGROV1 ovarian,> 100 µM
same,TGI,SN12C renal,> 100 µM
same,TGI,COLO 205 colon,> 100 µM
same,TGI,TK-10 renal,> 100 µM
same,TGI,OVCAR-3 ovarian,> 100 µM
same,TGI,MDA-MB-435,> 100 µM
same,TGI,SF-539 CNS,> 100 µM
same,TGI,NCI/ADR-RES ovarian,> 100 µM
same,TGI,SK-MEL-5 melanoma,> 100 µM
same,TGI,SNB-19 CNS,> 100 µM
same,TGI,SK-OV-3 ovarian,> 100 µM
same,TGI,786-0 renal,> 100 µM
same,TGI,MDA-N,> 100 µM
same,TGI,SNB-75 CNS,> 100 µM
same,TGI,M14 melanoma,> 100 µM
same,TGI,CCRF-CEM leukemia,> 100 µM
same,TGI,OVCAR-8 ovarian,> 100 µM
same,TGI,U251 CNS,> 100 µM
same,TGI,MDA-MB-231 breast,> 100 µM
same,TGI,HL-60(TB) leukemia,> 100 µM
same,TGI,RXF 393 renal,> 100 µM
same,TGI,SW-620 colon,> 100 µM
same,TGI,UACC-62 melanoma,> 100 µM
same,TGI,HS 578T breast,> 100 µM
same,TGI,BT-549 breast,> 100 µM
same,TGI,UACC-257 melanoma,> 100 µM
same,TGI,OVCAR-4 ovarian,> 100 µM
same,TGI,OVCAR-5 ovarian,> 100 µM
same,TGI,MCF7 breast,> 100 µM
same,TGI,KM12 colon,> 100 µM
same,TGI,SF-268 CNS,> 100 µM
same,TGI,HCT-116 colon,> 100 µM
same,TGI,HCC-2998 colon,> 100 µM
same,TGI,UO-31 renal,> 100 µM
same,TGI,EKVX NSCLC,> 100 µM
same,TGI,NCI-H460 lung,> 100 µM
